Source: US8486991B2, “Enantiomerically pure phosphoindoles as HIV inhibitors” (Idenix Pharmaceuticals, Inc., priority 2006, dated 2013)
Several values for one entry are separate records, joined by “and”; a condition that tells them apart may be missing. Equal values may be shown once. Read-outs that look alike come from different tables or passages of the source.

Experiments:
[1] = Cellular cytotoxicity, 4 days, MTS, MOLT-4; type: cell-based; conditions: human, Table 21, read-out: Average CC50 Values ± Standard Deviation, MOLT-4
Protocol: (§1) Cell viability was measured by standard MTT or MTS staining.

[2] = Cellular cytotoxicity, 4 days, MTS, MT-4; conditions: human, Average CC50 Values ± Standard Deviation, MT-4, Table 21, 4 days, MTS
Protocol: Following drug exposure for 4 days, cell viability was measured by MTS staining and CC50 values were determined. Drug concentrations ranged from 0.005 μM to 100 μM.
The preceding data, allows us to calculate selectivity index (SI) values, based on the ratio of CC50 to EC50 in MT-4 cells (the standard assay used in this work).

[3] = Longer term cytotoxicity, 12 days, MTS, HepG2; conditions: human
Protocol: as §1
(§2) Cells were repeatedly treated with a range of drug concentrations (0.005 to 100 μM) for 9 (HeLa) or 12 days (HuH7, HepG2).

[4] = Longer term cytotoxicity, HeLa, HuH7 and HepG2 (ranges); conditions: human, HuH7 and HepG2, 9-12 day testing
Protocol: as §1, §2

[5] = Cellular cytotoxicity, 4 days, MTS, U937; type: cell-based; conditions: human, Table 21, read-out: Average CC50 Values ± Standard Deviation, U937
Protocol: as §1

[6] = biological target: T1, human DNA polymerase alpha (Homo sapiens, UniProt P09884); assay: Human cellular DNA polymerase alpha assay; type: biochemical
T1 sequence (P09884 1-1462): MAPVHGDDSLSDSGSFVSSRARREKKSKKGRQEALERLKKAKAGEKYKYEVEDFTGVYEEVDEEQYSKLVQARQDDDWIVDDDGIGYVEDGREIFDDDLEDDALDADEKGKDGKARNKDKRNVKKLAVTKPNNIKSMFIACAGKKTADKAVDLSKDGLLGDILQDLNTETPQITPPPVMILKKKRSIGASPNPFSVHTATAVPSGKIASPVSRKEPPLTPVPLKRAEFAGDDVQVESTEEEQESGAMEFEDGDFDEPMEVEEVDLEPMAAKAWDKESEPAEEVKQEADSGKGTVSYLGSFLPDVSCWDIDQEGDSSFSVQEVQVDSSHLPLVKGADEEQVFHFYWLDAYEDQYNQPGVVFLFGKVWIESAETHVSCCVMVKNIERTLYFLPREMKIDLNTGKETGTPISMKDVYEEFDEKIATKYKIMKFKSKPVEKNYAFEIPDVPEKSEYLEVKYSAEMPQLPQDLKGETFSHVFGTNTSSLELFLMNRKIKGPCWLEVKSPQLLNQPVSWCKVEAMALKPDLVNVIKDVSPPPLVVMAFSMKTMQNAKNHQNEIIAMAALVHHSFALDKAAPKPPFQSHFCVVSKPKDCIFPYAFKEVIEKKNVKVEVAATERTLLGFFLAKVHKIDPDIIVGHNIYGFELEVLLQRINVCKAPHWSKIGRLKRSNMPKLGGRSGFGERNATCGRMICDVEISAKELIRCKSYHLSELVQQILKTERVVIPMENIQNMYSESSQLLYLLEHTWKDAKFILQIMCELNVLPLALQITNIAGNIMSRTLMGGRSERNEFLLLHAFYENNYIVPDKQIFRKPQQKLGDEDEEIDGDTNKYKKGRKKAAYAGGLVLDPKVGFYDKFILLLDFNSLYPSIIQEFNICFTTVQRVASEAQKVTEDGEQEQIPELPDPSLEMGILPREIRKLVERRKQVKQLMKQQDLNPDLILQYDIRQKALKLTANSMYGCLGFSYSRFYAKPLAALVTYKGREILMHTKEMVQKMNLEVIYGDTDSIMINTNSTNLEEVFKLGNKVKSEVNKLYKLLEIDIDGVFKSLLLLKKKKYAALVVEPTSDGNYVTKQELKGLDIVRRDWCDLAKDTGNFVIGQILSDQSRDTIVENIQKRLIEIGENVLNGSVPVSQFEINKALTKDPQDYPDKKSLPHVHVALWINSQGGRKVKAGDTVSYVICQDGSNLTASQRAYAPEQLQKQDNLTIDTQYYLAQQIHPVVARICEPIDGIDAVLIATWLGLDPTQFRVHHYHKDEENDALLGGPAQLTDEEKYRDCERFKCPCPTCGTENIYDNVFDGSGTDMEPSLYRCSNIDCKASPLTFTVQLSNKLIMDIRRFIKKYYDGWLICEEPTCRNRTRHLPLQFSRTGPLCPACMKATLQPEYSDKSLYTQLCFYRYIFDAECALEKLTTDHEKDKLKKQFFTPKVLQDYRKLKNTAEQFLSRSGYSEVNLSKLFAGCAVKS
From the text: HIV RT, like other viral polymerase, shares limited structural homology with the cellular DNA polymerases responsible for normal nuclear and mitochondrial DNA synthesis and repair. This raises the formal possibility that inhibitors of HIV RT might inhibit cellular polymerases, resulting in cellular toxicity. In particular, inhibition of polymerase gamma has the potential to result in mitochondrial toxicity. The ability of Compound I and Compound III to inhibit cellular DNA polymerases was assessed using standard in vitro assays (Table 5).

[7] = Cellular cytotoxicity, 4 days, MTS, IM9; type: cell-based; conditions: human, Table 21, read-out: Average CC50 Values ± Standard Deviation, IM9
Protocol: as §1

HIV-1 W.T. (BH10) virus = assay: microbe, parasite or virus in culture; type: cell-based; conditions: for Fold Change, W.T.: Table 13, MT-2
From the text: The HIV-1 strains used were BH10, NL4-3 and IIIB: the cell lines were U-937 cells (human monocytes derived from a histiocytic lymphoma); MOLT-4 cells (a human T lymphoblastic leukemia cell line); H-9 cells (human lymphoblastic T cells); and MT-2 and MT-4 human leukemia T cells.

HIV-1 IIIB in H9 cells = assay: Drug susceptibility assay, IIIB in H9 cells; type: cell-based; conditions: Human immunodeficiency virus 1, IIIB
From the text: The virus and host-cell dependency of Compound I, Compound III and control drugs was further examined in drug susceptibility assays performed across 3 different subtype B wild-type HIV-1 strains and 5 different cell lines.

HIV-1 BH10 W.T. = assay: Anti-HIV-1 BH10 W.T. activity in presence of HS or AAG; type: cell-based; conditions: for Fold Change, 10% Fetal Bovine Serum / Fold Change, 45% Human Serum / Fold Change, 45% Human Serum + AAG / Fold Change, 10% Fetal Bovine Serum + AAG: Table 20; for Fold Change, 45% Human Serum / Fold Change, 45% Human Serum + AAG / Fold Change, 10% Fetal Bovine Serum + AAG: vs 10% FBS only
[8] = MOLT-4 cells (T lymphoblastic leukemia cell line)
[9] = HuH7 and HepG2 cells (range over the three lines)
[10] = U-937 cells (monocytes derived from a histiocytic lymphoma)
[11] = Table 5, read-out: Average IC50 Values ± Standard Deviation, DNA Pol Alpha
[12] = IM9 cells (B lymphoblastic cell line)
[13] = Human immunodeficiency virus 1, MT2, read-out: Average EC50 Values ± Standard Deviation, W.T. (BH10)
[14] = Human immunodeficiency virus 1, MT2, read-out: Average EC50 Values ± Standard Deviation, host MT-2, virus BH10
[15] = H9, Table 17, read-out: Average EC50 Values ± Standard Deviation, host H9, virus IIIB
[16] = Human immunodeficiency virus 1, Table 19, AAG 1 mg/ml, read-out: Average EC50 Values ± Standard Deviation, 10% Fetal Bovine Serum + AAG
[17] = Human immunodeficiency virus 1, Table 19, AAG 1 mg/ml, read-out: Average EC50 Values ± Standard Deviation, 45% Human Serum + AAG
[18] = Human immunodeficiency virus 1, Table 19, read-out: Average EC50 Values ± Standard Deviation, 10% Fetal Bovine Serum
[19] = Human immunodeficiency virus 1, Table 19, read-out: Average EC50 Values ± Standard Deviation, 45% Human Serum
[20] = Human immunodeficiency virus 1, text b887, read-out: mean EC50 values, 45% HS+AAG

Structure (SMILES)	CC50 at 4 days [1, 8] [µM]	CC50 at 4 days ([2]; MT-4 cells (leukemia T cells)) [µM]	CC50 at 12 days ([3]; HepG2 liver cells) [µM]	CC50 [4, 9] [µM]	CC50 at 4 days [5, 10] [µM]	Average IC50 Values ± Standard Deviation, DNA Pol Alpha ([6]; Table 5)	IC50 [6, 11] [µM]	CC50 at 4 days [7, 12] [µM]	EC50 (HIV-1 W.T. (BH10) virus; [13]) [µM]	EC50 (HIV-1 W.T. (BH10) virus; [14]) [µM]	EC50 (HIV-1 IIIB in H9 cells; [15]) [µM]	EC50 (HIV-1 BH10 W.T.; [16]) [µM]	EC50 (HIV-1 BH10 W.T.; [17]) [µM]	EC50 (HIV-1 BH10 W.T.; [18]) [µM]	EC50 (HIV-1 BH10 W.T.; [19]) [µM]	EC50 (HIV-1 BH10 W.T.; [20]) [µM]	Fold Change, W.T. (HIV-1 W.T. (BH10) virus) [fold]	Fold Change, 10% Fetal Bovine Serum (HIV-1 BH10 W.T.) [fold]	Fold Change, 45% Human Serum (HIV-1 BH10 W.T.) [fold]	Fold Change, 45% Human Serum + AAG (HIV-1 BH10 W.T.)	other results
O=C1Nc2ccc(Cl)cc2C(C#CC2CC2)(C(F)(F)F)O1 (centres unmarked) [EFV, 6-chloro-4-cyclopropylethynyl-4-trifluoromethyl-1,4-dihydro-2H-3,1-benzoxazin-2-one, reference compound]	41.7 ± 3.4	44.1 ± 18.2	80.6 ± 12.1	48 to 81	23.2 ± 1	did not reach an IC50	109 ± 40.9	51 ± 1.3	0.0008 ± 0.0002	0.0008 ± 0.0002	0.0015 ± 0.0006	0.005 ± 0.0023	0.0116 ± 0.0074	0.0016 ± 0.0005	0.0115 ± 0.0039	0.0116	–	–	–	–	IC50 ([6]; Table 6, N=4, read-out: Mean IC50 Values ± Standard Deviation, DNA Pol Alpha): 109 ± 40.9 µM
CO[P@](=O)(c1cc(C)cc(/C=C/C#N)c1)c1c(C(N)=O)[nH]c2ccc(Cl)cc12 [Compound III, (2-Carbamoyl-5-chloro-1H-indol-3-yl)-[3-((E)-2-cyano-vinyl)-5-methyl-phenyl]-(R)-phosphinic acid methyl ester]	14.8 ± 1	18.6	23.5 ± 1.51	23.5 to 31.5	24.6 ± 1.9	did not reach an IC50	159 ± 84.3	50 ± 17.4	0.0011 ± 0.0004	0.0011 ± 0.0004	0.0005 ± 0.0002	0.0028 ± 0.0004	0.0326 ± 0.0073	0.0012 ± 0.0004	0.0219 ± 0.0117	0.0326	1	1	17.0 ± 6.3	19.5 fold and 24.8 fold	Fold Change, 10% Fetal Bovine Serum + AAG (HIV-1 BH10 W.T.; listed as Cmpd III): 2.1 ± 0.5 fold; Fold Change, 45% Human Serum + AAG (HIV-1 BH10 W.T.; listed as Cmpd III): 24.8 ± 3.8 fold
CO[P@](=O)(c1cc(C)cc(/C=C/C#N)c1)c1c(C(N)=O)[nH]c2ccc(Cl)c(F)c12 [Compound I, (2-Carbamoyl-5-chloro-4-fluoro-1H-indol-3-yl)-[3-((E)-2-cyano-vinyl)-5-methyl-phenyl]-(R)-phosphinic acid methyl ester]	–	–	–	–	–	did not reach an IC50	–	–	0.0009 ± 0.0006	0.0009 ± 0.0006	–	–	–	–	–	–	1	1	15.9 ± 11.1	24.8 fold and 19.5 fold	CC50 at 4 days [1]: 16.6 ± 0.4 µM; CC50 at 4 days [2]: 27 µM; CC50 at 12 days [3]: 25.7 ± 3.26 µM; CC50 ([4]; CC50 range): 23.5 to 31.5 µM; CC50 at 4 days [5]: 26.5 ± 0.5 µM; IC50 ([6]; Average IC50 Values ± Standard Deviation, DNA Pol Alpha, Table 5): 146 ± 44.5 µM; IC50 ([6]; Mean IC50 Values ± Standard Deviation, DNA Pol Alpha, Table 6, N=4): 146 ± 44.5 µM; CC50 at 4 days [7]: 32.9 ± 2.6 µM; EC50 (HIV-1 IIIB in H9 cells; H9, read-out: Average EC50 Values ± Standard Deviation, host H9, virus IIIB): 0.0006 ± 0.0001 µM; EC50 (HIV-1 BH10 W.T.; Human immunodeficiency virus 1, read-out: Average EC50 Values ± Standard Deviation, 10% Fetal Bovine Serum): 0.0011 ± 0.0004 µM; EC50 (HIV-1 BH10 W.T.; Human immunodeficiency virus 1, read-out: Average EC50 Values ± Standard Deviation, 10% Fetal Bovine Serum + AAG): 0.0029 ± 0.0012 µM; EC50 (HIV-1 BH10 W.T.; Human immunodeficiency virus 1, read-out: Average EC50 Values ± Standard Deviation, 45% Human Serum): 0.0146 ± 0.0063 µM; EC50 (HIV-1 BH10 W.T.; Human immunodeficiency virus 1, read-out: Average EC50 Values ± Standard Deviation, 45% Human Serum + AAG): 0.019 ± 0.0017 µM; EC50 (HIV-1 BH10 W.T.; Human immunodeficiency virus 1, read-out: mean EC50 values, 45% HS+AAG): 0.019 µM; Fold Change, 10% Fetal Bovine Serum + AAG (HIV-1 BH10 W.T.; listed as Cmpd I): 2.7 ± 0.7 fold; Fold Change, 45% Human Serum + AAG (HIV-1 BH10 W.T.; listed as Cmpd I): 19.5 ± 7.6 fold
